Values quoted from earlier work, collected in patent publication US20190365664A1, “CARYOPHYLLENE FORMULATIONS, APPARATUSES, AND METHODS” (Biotech Institute, LLC, priority 2016, published 2019).

Conditions: other studies (National Geographic News, Jun. 24, 2008)

Structure (SMILES): C=C1CC/C=C(\C)CC[C@@H]2[C@@H]1CC2(C)C [BCP, 4,11,11-Trimethyl-8-methylenebicyclo[7.2.0]undec-4-ene]
- psychoactive effects: does not have psychoactive effects
